Results from patent publication US20240053368A1, “METHOD FOR EVALUATING BLOOD PARAMETERS” (SEDICIDODICI S.R.L., priority 2020, published 2024).

What was measured:
[1] = system: platelets (platelet aggregate formation); test: ex-vivo dynamic evaluation of the coagulation process in a whole-blood sample under flow: platelet aggregate formation; set-up: species or system human; settings: mean value, blood of subjects under the therapy, 8-bit acquisition system
Excerpt: According to some embodiments, the method of the invention comprises the following steps: • a) providing a whole-blood sample taken from a subject and added with an anti-coagulant substance; • b) treating the blood sample of step a) with a solution consisting of fluorescent probes for marking platelets and fibrin capable of binding more or less specifically to platelets and fibrin and emitting fluorescent light on two different emission frequencies and of a recalcification solution of the blood sample. […]
(§1) From a study carried out on healthy subjects not subjected to anticoagulant or antiplatelet therapy (controls), mean values of the parameters calculated as described above were obtained. […]

[2] = system: fibrin (fibrin formation); test: ex-vivo dynamic evaluation of the coagulation process in a whole-blood sample under flow: fibrin formation; set-up: species or system human; settings: mean value
Excerpt: According to some embodiments, the method of the invention comprises the following steps: • a) providing a whole-blood sample taken from a subject and added with an anti-coagulant substance; • b) treating the blood sample of step a) with a solution consisting of fluorescent probes for marking platelets and fibrin capable of binding more or less specifically to platelets and fibrin and emitting fluorescent light on two different emission frequencies and of a recalcification solution of the blood sample. The two aforesaid solutions can also be combined in a single solution or single reagent; • c) introducing said recalcified blood sample into an analytical device having at least one perfusion chamber, in which at least one wall consists of a transparent material comprising a cytoadhesive substance, the blood sample being made to flow into the perfusion chamber in known and measurable flow conditions; • d) during the blood flow in the perfusion chamber, alternately acquiring at least two series of fluorescence images, so that at least one series of fluorescence images is acquired at an emission wavelength characteristic of the fluorescent probe for platelets and at least one other series of fluorescence images is acquired at another emission wavelength characteristic of the fluorescent probe for fibrin; • e) binarizing the pixels of the acquired images for the platelets and for the fibrin, so as to generate a first curve of area covered by illuminated pixels vs. time (t) for the formation of a platelet aggregate and a second curve of area covered by illuminated pixels vs. time for the fibrin formation; • f) generating a first curve of average fluorescence intensity vs. time for the formation of the platelet aggregate and a second curve of average fluorescence intensity vs. time for the fibrin formation; • the method further comprising at least one of the following steps: • g) generating a first integrated density curve defined as the product of area and fluorescence intensity vs. time for the formation of the platelet aggregate and a second integrated density curve defined as the product of area and fluorescence intensity vs. time for the fibrin formation; • h) generating a curve of particle number vs. time, in which the number of particles is given by the number of platelet aggregates consisting of more than 2 illuminated pixels; • i) generating a curve of particle size vs. time, in which the particle size is given by the average size of the platelet aggregates consisting of more than 2 illuminated pixels; • j) generating values of maximum slope, defined as the relative maximum points of the first derivative function calculated for the curves of the parameter obtained in one or more of steps e), f), g), h) and i); • k) generating values of maximum acceleration, defined as the relative maximum points of the second derivative function calculated for the curves of the parameter obtained in one or more of steps e), f), g), h) and i); • l) generating values of F/P ratio, defined as the ratio of the AUCs of fibrin to the AUCs of the platelets of the parameter obtained in one or more of steps e), f) and g); • the method further comprising the steps of: • m) generating a lag time value representing the fibrin formation time defined as the time corresponding to the first occurrence of five consecutive images in which the value of the measured area related to fibrin is >1% of the maximum peak value of the curve; • n) generating the AUC (Area Under the Curve) values given by the area under the curve of the parameter obtained in one or more of steps e), f), g), h) and i).
as §1

## CC(=O)Oc1ccccc1C(=O)O [ASA, acetylsalicylic acid]
[1]; area under the curve of the area curve
  Platelets AUC Area: 3.4 ×10^7
[1]; area under the curve of the fluorescence intensity curve
  Platelets AUC MGV: 2.0 ×10^4
[1]; area under the curve of the integrated density curve
  Platelets AUC ID: 3.0 ×10^9
[2]; AUC Area ratio of fibrin to platelets, subjects under the therapy
  F/P Area: 1.0
[2]; AUC ID ratio of fibrin to platelets, subjects under the therapy
  F/P ID: 2.2
[2]; AUC MGV ratio of fibrin to platelets, subjects under the therapy
  F/P MGV: 1.2
[2]; blood of subjects under the therapy, area under the curve of the area curve, 8-bit acquisition system
  Fibrin AUC Area: 3.0 ×10^7
[2]; blood of subjects under the therapy, area under the curve of the fluorescence intensity curve, 8-bit acquisition system
  Fibrin AUC MGV: 2.0 ×10^4
[2]; blood of subjects under the therapy, area under the curve of the integrated density curve, 8-bit acquisition system
  Fibrin AUC ID: 4.3 ×10^9
